Results taken from patent US7687473B2, “5-amino-4-imidazolecarboxamide riboside and its nucleobase as potentiators of antifolate transport and metabolism” (Health Research, Inc., priority 2005, dated 2010).

What was measured:
[1] = system: CCRF-CEM human leukemia cells; assay: Synthesis of methotrexate polyglutamates by CCRF-CEM cells; type: cell-based
Procedure: MTX polyglutamate synthesis. […] At the end of the exposure cells were rapidly chilled to 4 degrees C., harvested by centrifugation at 1000×g for 5 min, washed twice with iced 0.9% NaCl by centrifugation in the same manner. One mL of boiling 50 mM Na-phosphate, pH 5.5 was added, the pellet was triturated and the sample boiled for 5 min. The sample was rapidly cooled to 4 degrees C. Debris was removed by centrifugation as above. The supernatant was further clarified by centrifugation through an Amicon MPS-1 filter unit. […] A suitable volume was injected onto a reversed-phase HPLC column (C18) and eluted with a gradient of from 4-14% acetonitrile over about 43 min. One min fractions were collected and, after addition of 10 ml scintillation fluid, were quantitated by liquid scintillation counting.

[2] = system: CCRF-CEM cells; assay: [3H]MTX uptake (initial velocity and 30 min accumulation) in CCRF-CEM cells; type: cell-based, human; conditions: for Q10 for extent of [3H]MTX uptake at 30 min / Q10 for vi of [3H]MTX uptake (37° vs. 27°): 1 μM TMTX; for Vmax/Kt from vi (0-5 min) data: 1-10 μM MTX
Procedure: (§1) Quantitation of folate and antifolate uptake. The method is essentially as follows. Briefly, logarithmically growing (3-5×10^5/ml) CCRF-CEM cells were harvested at room temperature by centrifugation at 1000×g for 5 min. After washing with the appropriate medium, cells were suspended at ≈2×10^7 cells/ml for use in transport studies. […] Anion-free MHS contains 250 mM sucrose and 20 mM HEPES, titrated to pH 7.4 with MgO. […] Uptake was measured as a function of time for 30 min (for rate and extent measurements) or over 5 min (studies requiring initial velocities). […] Uptake was terminated by diluting 100 μL samples into 1 ml of iced 0.9% NaCl. […] The supernatant was aspirated. The cell pellet was washed once with 1 ml iced 0.9% NaCl and centrifuged as above. The washed pellet was solubilized in 1 ml of 0.3% Triton X-100 by incubation for 60 min at 37° C. The solubilized pellet was transferred to a scintillation vial, 10 ml of Liquiscint (National Diagnostics, Atlanta, Ga.) was added and radioactivity was quantitated in a Beckman Model LS6500 liquid scintillation counter. Separate samples at the longest incubation time used in a particular experiment were harvested for HPLC analysis of intracellular contents as above, except that after the second wash the pellets were extracted with 1 ml boiling 0.1 M Na-phosphate, pH 5.5. The extract was clarified by centrifugation and the supernatant was filtered through an MPS-1 filter unit (Amicon) prior to HPLC analysis.

[3] = system: K562 human chronic myelogenous leukemia cell line; assay: [3H]MTX influx in K562 cells; type: cell-based; conditions: 0.5 mM Z; data not shown
[4] = molecular target: T1, reduced folate carrier (RFC) (Homo sapiens, UniProt P41440); assay: Kinetic constants for influx of [3H]MTX by CCRF-CEM cells; type: cell-based
T1 construct: endogenous in cells; host or cells: CCRF-CEM (parental)
T1 sequence (P41440 1-591): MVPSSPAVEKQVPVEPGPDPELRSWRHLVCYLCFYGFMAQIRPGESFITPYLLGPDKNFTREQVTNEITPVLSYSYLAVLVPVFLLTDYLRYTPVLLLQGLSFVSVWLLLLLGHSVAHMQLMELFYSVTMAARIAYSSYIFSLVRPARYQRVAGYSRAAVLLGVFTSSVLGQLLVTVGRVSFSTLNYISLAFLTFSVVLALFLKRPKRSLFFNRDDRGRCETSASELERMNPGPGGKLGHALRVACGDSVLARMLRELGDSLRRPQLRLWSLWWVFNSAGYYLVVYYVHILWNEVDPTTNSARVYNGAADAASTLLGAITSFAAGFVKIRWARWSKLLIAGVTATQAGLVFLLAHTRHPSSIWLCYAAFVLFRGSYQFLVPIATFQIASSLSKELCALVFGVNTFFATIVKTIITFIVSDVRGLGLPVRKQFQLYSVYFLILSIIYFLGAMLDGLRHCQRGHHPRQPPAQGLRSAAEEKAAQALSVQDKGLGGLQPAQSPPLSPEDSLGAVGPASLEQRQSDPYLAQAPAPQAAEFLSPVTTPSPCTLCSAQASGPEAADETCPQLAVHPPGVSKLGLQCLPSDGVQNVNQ
Procedure: as §1
Inhibition of the vi of uptake was measured after pre-incubation of CCRF-CEM cells either with TMTX alone (measuring inhibition at the RFC) or with TMTX+Z (measuring inhibition during Z potentiation). […] All studies were carried out in standard transport medium. Inhibitory potency was measured in two series of experiments and AMT was included in each series as an internal control. Values are average±range of two determinations. […] Values are average±range for duplicate determinations.

[5] = system: R2 clones transfected with human RFC expression plasmid; assay: [3H]MTX transport in RFC-transfected R2 clones; type: cell-based
Procedure: To further confirm the involvement of RFC, we transfected the RFC-negative R2 subline of CCRF-CEM with a human RFC expression plasmid. Stably expressing clones were selected in 2 nM leucovorin (LV)-containing RPMI 1640 medium (R2 cannot replicate in this medium, while parental RFC-expressing CCRF-CEM can replicate). […] This supports RFC as mediating the transport potentiated by Z.

[6] = system: CCRF-CEM cells; assay: [3H]MTX efflux from CCRF-CEM cells
[7] = 500 μM Z, 4 hr exposure to 2 μM [3H]MTX
[8] = 4 hr exposure to 2 μM [3H]MTX, Z 500 μM where present
[9] = influx of [3H]MTX, pre-incubation with solvent (MTX alone), 1 μM TMTX, or 1 μM TMTX + 0.5 mM Z

NC(=O)c1ncn([C@@H]2O[C@H](CO)[C@@H](O)[C@H]2O)c1N [Z, 5-amino-4-imidazolecarboxamide riboside]
Increase of MTX polyglutamates (n≧2) accumulation [1, 7]: 3.5 fold
Increase of longer MTX polyglutamates (n≧3) [1, 7]: 6 fold
Increase of total drug accumulation [1, 7]: 3 fold
MTXGn accumulation at 1 and 10 μM [3H]MTX ([1]; 500 μM Z, data not shown): Increased MTXGn accumulation
Drug retained after 2 hr efflux following 4 hr uptake ([1]; cells initially treated with Z, data not shown): much higher levels of drug
Potentiation of 30 min accumulation (highest) ([2]; 0.5 mM Z, 10 μM [3H]MTX): 6 fold
Potentiation of accumulation at 30 min ([2]; 0.5 mM Z, HBSS): ≈ 4 fold
Potentiation of accumulation at 30 min ([2]; 0.5 mM Z, MHS): ≈ 2 fold
Potentiation of accumulation at 30 min ([2]; 0.5 mM Z, standard medium): ≈ 2 fold
Effect on initial influx velocity (vi; 0-5 min) ([2]; Z added 5 min before 2 μM [3H]MTX): does not affect vi
Delay before potentiation of [3H]MTX uptake ([2]; Z added 10 min after [3H]MTX, data not shown): ≥ 5 min
Increase of MTX accumulation at 30 min ([2]; Z at 0.5-1.0 mM, 2 μM [3H]MTX): ≥ 3 fold
Onset of potentiation of [3H]MTX uptake ([2]; Z present with TMTX in 10 min preincubation): no delay in potentiation
Delay before the onset of Z potentiation ([2]; all levels of MTX (1-10 μM), 0.5 mM Z): ≈ 10 min
Potentiation of [3H]MTX influx [3]: potentiates
Increase of Vmax of MTX influx ([4]; Z addition in presence of TMTX): ≈ 3 fold
Potentiation of [3H]MTX transport in RFC-transfected clones compared with CCRF-CEM [5]: potentiated by Z to a similar extent
Effect on MTX efflux rates ([6]; 0.5 mM Z during uptake and/or efflux): No significant difference

CN(Cc1cnc2nc(N)nc(N)c2n1)c1ccc(C(=O)N[C@@H](CCC(=O)O)C(=O)O)cc1 [MTX, 4-amino-10-methylpteroylglutamic acid]
4-NH2-10-CH3-PteGlun, N ≧ 3 [1, 8]: 3.8 pmol/10^7 cells
4-NH2-10-CH3-PteGlun, n = 1 (MTX) [1, 8]: 26.2 pmol/10^7 cells
4-NH2-10-CH3-PteGlun, n = 2 [1, 8]: 23.8 pmol/10^7 cells
4-NH2-10-CH3-PteGlun, n = 3 [1, 8]: 2.3 pmol/10^7 cells
4-NH2-10-CH3-PteGlun, n = 4 [1, 8]: 1.4 pmol/10^7 cells
4-NH2-10-CH3-PteGlun, n = 5 [1, 8]: 0.1 pmol/10^7 cells
4-NH2-10-CH3-PteGlun, n ≧ 2 [1, 8]: 27.6 pmol/10^7 cells
Total drug [1, 8]: 53.8 pmol/10^7 cells
Intracellular radiolabel that is MTX at 30 min (HPLC) ([2]; absence of Z): 86%
Intracellular radiolabel that is MTX-γ-Glu at 30 min (HPLC) ([2]; absence of Z): 12%
Q10 for extent of [3H]MTX uptake at 30 min ([2]; absence of Z): 3.45±0.15
Q10 for vi of [3H]MTX uptake (37° vs. 27°) ([2]; absence of Z): 4.6±0.3
Vmax/Kt from vi (0-5 min) data ([2]; absence of Z): 0.44
Q10 for extent of [3H]MTX uptake at 30 min ([2]; presence of 0.5 mM Z): 3.65±0.15
Q10 for vi of [3H]MTX uptake (37° vs. 27°) ([2]; presence of 0.5 mM Z): 5.9±0.1
[MTX]i/[MTX]e at 30 min ([2]; presence of 0.5 mM Z, all MTX concentrations 1-10 μM, assuming 0.55 pL/cell): ≥ 1.9
Vmax/Kt from vi (0-5 min) data ([2]; presence of 0.5 mM Z): 0.47
Intracellular radiolabel that is MTX at 30 min (HPLC) ([2]; presence of Z): 83%
Intracellular radiolabel that is MTX-γ-(Glu)2 at 30 min (HPLC) ([2]; presence of Z): < 1%
Intracellular radiolabel that is MTX-γ-Glu at 30 min (HPLC) ([2]; presence of Z): 7.5%
Kt [4, 9]: 3.0 ± 0.8 µM
Vmax [4, 9]: 5.8 ± 0.9 pmol/min/10^7 cells
Efflux t1/2 ([6]; loading and efflux each ±0.5 mM Z (cross-over), 2 μM [3H]MTX): 14.6 to 18.7 min
